Measured values as given in patent US20210213135A1 (Purdue Research Foundation, priority 2018, published 2021).

Tests used:
[1] = tested on: Swiss Webster fracture-bearing mice (healed femur); assay: postmortem 4 point bend of the healed femur; format: in vivo
Text: All in vivo data included herein are from Swiss Webster mice. All mice received an osteotomy on their right femur and received subcutaneous drug administration daily for either 2,3 or 4 weeks, or 17 days, as indicated, for each compound. 1× concentration represents 1 nmol/day, 10× represents 10 nmol/day, 100× represents 100 nmol/day most studies have an n of 5.
The term “Peak Load” means a postmortem 4 point bend of the healed femur. Peak load represents the maximum force the healed femur withstood before it refractured.
The targeted conjugates were synthesized using standard Fmoc solid-phase peptide synthesis, as described above. To ensure the conjugates' activity, mouse pre-osteoblast ([…]) cells were treated with the targeted and untargeted compounds for three days at concentrations from 1 pM to 100 nM. After three days of treatment, the cells were harvested, and the RNA was purified from the cells. Expression levels of ALP, RUNx2 (transcription factor for osteoblast differentiation), osterix (OSX), osteopontin (OPN), collagen 1A (Col-1A), OPG, RANKL, sclerostin gene (SOST), and OC were quantified via quantitative reverse transcription polymerase chain reaction (RT-qPCR). Once the biological activity of the conjugates was confirmed, they were tested in vivo in a fracture model. Aseptic surgical techniques were used to place a 23-gage needle as in intramedullary nail in the femur of anesthetized, 12-week-old Swiss Webster mice for internal fixation before fracture. Femur fractures were induced using a drop weight fracture device from RISystem. The mice received buprenorphine for three days post fracture. The mice were dosed subcutaneously each day for three weeks or 17 days. Fracture healing was assessed using microCT (Scanco Medical Ag). Morphometric parameters were quantified in the 100 widest slices of the fracture callus. Trabecular thickness (Tb.Th.), trabecular spacing (Tb.Sp.), total volume (TV), and volume of calcified callus (BV) were calculated. Fractured femurs were tested for strength in a four-point bend to failure using an Electro Force TestBench (TA Instruments). Lower supports were 10 mm apart on the anterior face of the femur in contact with the proximal and distal diaphysis. Upper supports were 4 mm apart and spanned the entire fracture callus on the diaphysis. Force was applied from the posterior face of the femur with a displacement rate of 0.3 mm/sec. Peak load, yield load, stiffness, displacement post yield, work to fracture, and deformation data were generated. Statistical analysis was performed using a two-way analysis of variance (ANOVA) and a Tukey post-hoc analysis with significance reported at the 95% confidence level. All animal experiments were performed in accordance with protocols approved by Purdue University's Institutional Animal Care and Use Committee (IACUC).

[2] = tested on: Swiss Webster fracture-bearing mice (fracture callus); assay: micro CT of the fracture callus in the femur fracture model; format: in vivo
[3] = 17 days, 1, 10 and 100 nmol daily s.c., n=5
[4] = 2 weeks, 1, 10 and 100 nmol/day

Substance	Max load (peak load) [1, 3]	Work to fracture [1, 3]	BV (bone volume) [2, 3]	BV/TV [2, 3]	Peak load of fractured femurs ([1]; after 2 weeks, 100 nmol/day (100×), compared to PBS)	BV/TV [2, 4]	TbSp [2, 4]
P3_mp4_(D)E10: SEQ ID NO: 29, P3 fragment of bone sialoprotein followed by a 4 minipeg spacer and 10 (D) glutamic acids (HYESENGEPRGDNYRAYEEEEEEEEEE; 4 minipeg spacer; D-glutamic acids; P3_mp4_e10)	raises bone strength	raises bone strength	raises bone mineralization	raises bone density	–	–	–
BFP-D10: SEQ ID NO: 1, bone forming peptide conjugated with 10 aspartate acids: DDDDDDDDDDGQGFSYPYKAVFSTQ (BFP D10)	–	–	–	–	obtained the maximum peak load	dose dependent manner	dose dependent manner
